The subject of data set [1] is T-289 human melanoma cells. The experiment in a line: Development of DDP resistance in T-289 cells (selection with DDP ± TAM, colony formation assay). The data set is classed as cell-based.
For data set [2], the system named is melanoma. The experiment in a line: Clinical trial: response of melanoma patients to DDP alone, then TAM/DDP. The data set is classed as in vivo, human. The source says:
A complete response was defined as the complete disappearance of all evidence of disease for at least 4 weeks. A partial response was a decrease in the mean diameter of the target lesion by 50% or more lasting at least 4 weeks. A mixed response was a decrease in the diameter of some target lesions of 50% or more while others remained stable or increased in size.
Patients were retreated every 3 weeks. […] Subsequent patients received an ondansetron-based regimen.

Data set [3] can be described thus: Plasma concentrations of TAM in patients. Particulars: predicted from in vitro data.
The conditions of data set [4]: read-out: Steady-state plasma concentration; chronic administration, 10 mg p.o. twice a day; cited from earlier work.
Data set [5] deals with melanoma. The following applies: 203 treated melanoma patients; cited from earlier work.
Data set [6] in a line: Clinical trial: toxicities with DDP or DDP/TAM treatment. Particulars: in words.
Text: (§1) Entry requirements included histologically documented melanoma, measurable disease, signed informed consent, and no anti-tumor therapy during the previous 4 weeks. Patients were required to have normal hematologic and renal function, an Eastern Cooperative Oncology Group (ECOG) performance status of 0-2 and an estimated survival of at least 3 months. Patients with a previous history of deep venous thrombosis or pulmonary embolism were excluded.
(§2) Pre-treatment hydration consisted of 1 liter of 5% dextrose/0.45%saline containing 20 mEq of potassium chloride and 2 g magnesium sulfate administered over 4 hours. […] Patients were retreated every 3 weeks. On cycles where TAM was administered, 40 mg p.o. four doses per day were given on day 1 followed by 20 mg p.o. daily thereafter.
The conditions of data set [7]: human, in vivo.
Text: as §1, §2
Setting [8] is: DDP alone: 24 patients, TAM/DDP: 20 patients (19 evaluated), after DDP alone.
The mark [9] stands for this setting: DDP alone: 24 patients, TAM/DDP: 20 patients, after DDP alone.
Setting [10] is: of the 19 patients evaluated for TAM/DDP.

Here are results for three compounds from patent US6288111A (Research Development Foundation, priority 1995, dated 2001).

Like-named read-outs stand apart in the source and are kept apart here.

In the case of `N.N.[Cl][Pt][Cl]` [DDP, cis-diamminedichloroplatinum (II)], in data set [1] (T-289, selection), the “Time at which DDP resistance became apparent” value is given as 200 days. The “Rate of emergence of DDP resistance, DDP alone compared with DDP and TAM” value in data set [1] (T-289, p<0.01) came out at 2.75 fold. Moreover, in the data set with melanoma [2] (DDP alone, one patient), the “Duration of complete response” value was “more than 15 months”, the “Stable off treatment after partial response” value is recorded as ≥ 6 months and the “Time to progression after partial response” value amounted to 4 months. Moreover, the “Complete Response (%)” value in the data set on melanoma [2] (DDP alone: 24 patients) turned out to be 4%. In addition, the “Progressive Disease (number of patients)” value in the data set on melanoma [2] (DDP alone: 24 patients (two refused DDP/TAM), TAM/DDP: 20 patients) came out at 19 patients. Moreover, the “Stable Disease (number of patients)” value with melanoma [2] (DDP alone: 24 patients, TAM/DDP: 20 patients) was determined as 2 patients. In addition, in the data set on melanoma [2] (setting [8]), the “Mixed Response (number of patients)” value was 0 patients and the “Partial Response (number of patients)” value is listed as 2 patients. In addition, in the data set on melanoma [2] (setting [9]), the “Complete Response (number of patients)” value is “One” and the “Partial Response (%)” value is listed as 8%. In addition, the “Complete Response (number of patients)” value in the data set with melanoma [2] (DDP alone: 24 patients, TAM/DDP: 20 patients, after DDP alone, listed as Cisplatin) is on record as 1 patients. Also, in the data set on melanoma [2] (setting [10]), the “Progressive disease while receiving single agent DDP (number of patients)” value was 17 patients and the “Stable disease while receiving single agent DDP (number of patients)” value came to 2 patients.

With `CC/C(=C(\c1ccccc1)c1ccc(OCCN(C)C)cc1)c1ccccc1` [TAM, tamoxifen], in data set [1] (T-289, concurrent DDP and TAM, in words), the “Effect on development of DDP resistance” value was “can delay the development of DDP resistance”. In data set [3], the “Plasma concentration predicted to be necessary in DDP resistant patients” value is listed as “more than 1.0 μM”. In data set [4], the concentration was ~290 nM. Moreover, the “Outcome of treatment in words” value with melanoma [2] (TAM and DDP in patients resistant to single agent DDP) is on record as “can overcome established resistance to DDP in a significant fraction of patients with malignant melanoma”. In addition, the “Response rate, single agent TAM” value in the data set on melanoma [5] was 6%. In addition, in data set [6], the Nephrotoxicity entry is “nephrotoxicity was uncommon and unaffected by the administration of TAM”; the “Overall toxicity / tolerability” value was “No increased toxicity was noted with the addition of TAM to single agent DDP”. The Nausea or vomiting entry in data set [6] (during hospitalization for ondonsetron) was “did not increase nausea or vomiting”.

For the compound `Cc1nccn1CC1CCc2c(c3ccccc3n2C)C1=O` (stereo not drawn) [ondonsetron], the Nausea or vomiting entry in data set [7] was “markedly reduced nausea and vomiting during hospitalization”.
